One substance from US6974867B2, “Compositions and methods for treating neoplastic disease using chemotherapy and radiation sensitizers” (Chiron Corporation, priority 2000, dated 2005) can be followed below.

The subject of data set [1] is p53. Briefly: Western analysis of p53 after γ-irradiation of transfected HT1080 cells. Type of data set: cell-based, human. As to conditions: 10 Gy γ-irradiation 24 hours after transfection. As to the method:
(§1) HT1080 cells expressing endogenous KIAA0175 were transfected with the KIAA0175 anti-sense oligonucleotide (1182) and the corresponding reverse control oligonucleotide (RC1182). After culture for 24-hours, the transfected cells were treated with 10 Gy of γ-irradiation. At various times after irradiation, cells were harvested and lysates prepared and subjected to SDS-PAGE. p53, Erk2, and p21 proteins were detected by Western analysis.

In data set [2] the test system is KIAA0175. Briefly: Western analysis of KIAA0175 protein level after anti-sense transfection, HT1080 cells. Type of data set: cell-based, human. From the text:
(§2) In separate experiments, either HT1080 or HCT116 cells expressing endogenous KIAA0175 and p53 were transfected with either FITC, KIAA0175 anti-sense oligonucleotides (i.e. 545 or 1182), or the corresponding reverse control oligonucleotides (RC or RC545). Total cell lysates were fractionated by SDS-polyacrylamide gel electrophoresis and transferred to nitrocellulose membranes. Specific proteins were detected by Western analysis using antibodies to either KIAA0175 (rabbit polyclonal antisera), p53, Erk2, or p21 antibodies as indicated. Antibodies against p53, p21 and Erk2 were obtained from Santa Cruz Biotechnology, Inc. (Santa Cruz, Calif.).

In data set [3] the test system is p21. Briefly: Western analysis of p21 after γ-irradiation of transfected HT1080 cells. Format: cell-based, human. Particulars: 10 Gy γ-irradiation 24 hours after transfection. As to the method:
as §1

The test system of data set [4] is Normal Breast Epithelial Cell Line 184B5. Briefly: LDH cytotoxicity assay, normal breast epithelial cell line. Format: cell-based. How it is done:
(§3) The effect of KIAA0175 anti-sense molecules on cell sensitivity to chemotherapeutic drugs was tested on several cell lines using the lactate dehydrogenase (LDH) cytotoxicity assay essentially as follows:
(§4) Day 1: Cells were seeded in 4 separate 96 well plates, typically 5000 cells/well and incubated at 37° C. and 5% CO2.
(§5) Day 2: Cells were transfected with the KIA175-1182 and KIA175-545 anti-sense oligonucleotides (SEQ ID NOs:5 and 1, respectively) as well as the reverse complement controls, RC1182 and RC545 (SEQ ID NOs:6 and 2, respectively) essentially as described in Example 4, with and without drug. One plate (day 0) was left untransfected as a seeding control.
(§6) The transfection was carried out using a lipid vehicle for delivery as described in WO 01/16306, hereby incorporated in its entirety. Briefly, the transfection used agents known as “lipitoids” and “cholesteroids”, described, for example, in PCT publications WO 01/16306, WO 98/06437 and WO 99/08711, based on U.S. Ser. No. 60/023,867, 60/054,743, and 09/132,808, which are also hereby incorporated by reference. These lipid-cationic peptoid conjugates are shown in these references to be effective reagents for the delivery of plasmid DNA to cells in vitro. Any of the carriers described in the above-referenced applications are suitable for use in transfection of the oligonucleotides described herein.
(§7) Depending on the cell type, different lipid vehicles were used for different lengths of time for transfection. […] The transfection was carried out in complete medium and the final anti-sense oligonucleotide concentration was 300 nM per well. In the wells with drug, the drug was added to the culture at the beginning of the transfection.
(§8) Starting on Day 3: Cells were recovered, 1 plate/day and release of LDH into the supernatant was measured using a kit from Roche according to manufacturer's instructions (Roche Diagnostics, Basel, Switzerland) (data labeled as day 1, 2, 3).
(§9) For each sample, the data are expressed as a ratio of the level of LDH in wells containing cells transfected with anti-sense (AS) over the level of LDH in wells containing cells transfected with the reverse complement controls (RC) (ie:AS/RC). Thus, cells that become sensitized to drug will die and release LDH into the supernatant. An increase in the ratio signifies increased cell death and thus, higher levels of LDH in the media. A ratio higher than 1.5 signifies an effect of the anti-sense over the reverse complement control.

Data set [5] has as its system p53. Briefly: Western analysis of p53 protein level after anti-sense transfection, HT1080 cells. Format: cell-based, human.
Description: as §2

In data set [6] the test system is HT1080 cells. Briefly: Cell cycle arrest upon γ-irradiation in transfected HT1080 cells. Format: cell-based, human. How it is done: Because both p53 and p21 are involved in the G1 to S phase cell cycle transition, the following experiments were performed in order to assess the effect of KIAA0175 anti-sense molecules on cell cycle regulation.
Table 1 discloses the percentage of HT1080 cells in each stage of the cell cycle at various times following exposure to γ-irradiation. By 24 hours, cells were arrested in both the G1 and G2 phases as evidenced by the elevated percentage of cells in G0/G1 and G2/M phases as compared to the diminished percentage of cells in the S phase.
Table 2 discloses the effect of KIAA0175 anti-sense molecules on γ-irradiation induced cell-cycle arrest. In cells transfected with anti-sense molecules, there was a reduction in the accumulation of cells in the G1 phase and a minimized reduction in the number of cells in the S phase as compared to cells transfected with a “reverse-control” anti-sense molecule as control.

Data set [7] concerns Breast Cancer Cell Line MDA-MB-231. Briefly: LDH cytotoxicity assay, breast cancer cell line. Type of data set: cell-based. How it is done:
as §3, §4, §5, §6, §7, §8, §9

Data set [8] has as its system KIAA0175 mRNA. Briefly: Northern analysis of KIAA0175 mRNA after anti-sense oligonucleotide transfection. As to conditions: HT1080 cells. Type of data set: cell-based, human. As to the method: HT 1080 cells express endogenous KIAA0175. These cells were transfected with either the FITC (negative control) or AKT1 (positive control) oligonucleotides), 1182, or 545 oligonucleotides. Briefly, 100 nM of the respective anti-sense oligonucleotide was mixed with lipitoid 1 transfection reagent (Huang et al., Chemistry and Biology 5(6):346-354 (1998)) in a 1:3 volume to volume ratio in OPTI-MEM (GibcoBRL). The mixture was added to the HT1080 cells in complete medium (EMEM, 10% heat inactivated fetal bovine serum (FBS), 2 mM L-Glutamine, 100 U/ml Penicillin, and […] Streptomycin) and the cells were incubated at 37° C. for ^˜4-5 hours in the presence of the anti-sense oligonucleotides before changing to fresh complete medium. Total RNA was extracted at day 1 or 24, 48, or 72 hours following transfection and mRNA levels of KIAA0175 were detected by Northern analysis. 20 μg of total RNA were subjected to electrophoresis on a denaturing agarose gel. RNA was transferred to nitrocellulose and KIAA0175 mRNA was detected by probing with a ^32P-labeled, 0.7 kb KIAA0175 cDNA fragment. To control for equal loading of individual lanes, the blot was stripped of the KIAA0175 probe and re-probed with a ^32P-labeled G3PDH cDNA probe obtained from Clontech.

Consider “KIA175-1182: KIAA0175 anti-sense oligonucleotide 5′-GGGTAGCACTGGCTTGTCCACAGGA-3′ (listed as DNA, chemistry not given here)”, for which the “γ-irradiation induced increase in p53 protein level” value in data set [1] is “blocked the γ-irradiation induced increase in p53 protein level”. For the same substance, in data set [2], the “time of maximal anti-sense activity, KIAA0175 protein” value was 48 h. Moreover, in data set [3], the “p21 protein levels after γ-irradiation” value is on record as “reduction of p21 protein levels”. Besides, the “LDH ratio AS/RC” value in data set [4] (184B5, Day 0 (untransfected seeding control plate), 300 nM oligonucleotide) came to 0.0000; in data set [4] (184B5, Day 1, 300 nM oligonucleotide, ratio higher than 1.5 signifies an effect), 1.0223; in data set [4] (184B5, Day 2, 300 nM oligonucleotide, ratio higher than 1.5 signifies an effect), 0.9065; in data set [4] (184B5, Day 3, 300 nM oligonucleotide, ratio higher than 1.5 signifies an effect) it was 1.0663; in data set [7] (MDA-MB-231, Day 0 (untransfected seeding control plate), 300 nM oligonucleotide) it was 0.76; in data set [7] (MDA-MB-231, Day 1, 300 nM oligonucleotide, ratio higher than 1.5 signifies an effect), 2.04. The “LDH ratio AS/RC” value turned out to be 1.67 in data set [7] (MDA-MB-231, Day 2, 300 nM oligonucleotide, ratio higher than 1.5 signifies an effect) and 1.52 in data set [7] (MDA-MB-231, Day 3, 300 nM oligonucleotide, ratio higher than 1.5 signifies an effect). For the same substance, the “effect on cell death (LDH)” value in data set [4] (184B5 normal breast epithelial cell line) was “neither KIA175-1182 nor KIA175-545 has an effect”. Besides, the “time of maximal anti-sense activity, p53 protein” value in data set [5] was 48 h. Also, the “percentage of cells in G0-G1” value came to 39.3% in data set [6] (+ γ-irradiation) and 47.4% in data set [6] (− γ-irradiation). For the same substance, the “percentage of cells in G2-M” value in data set [6] (+ γ-irradiation) was 42.17%; in data set [6] (− γ-irradiation) it was 26.8%. The “percentage of cells in S” value is 18.6% in data set [6] (+ γ-irradiation) and 25.7% in data set [6] (− γ-irradiation). In addition, the “level of KIAA0175 mRNA expression” value in data set [8] (100 nM oligonucleotide, Northern analysis) is “effective in reducing the level of KIAA0175 mRNA expression”. In addition, the “KIAA0175 mRNA expression over time” value in data set [8] (24 to 72 hours after oligonucleotide administration) is reported as “increased gradually”.
